Assay results taken from article PMC6211260 (Journal of Enzyme Inhibition and Medicinal Chemistry, 2018).

Columns and labels:
Format in all cases: cell-based
[1] = test system: A498 renal cancer cell line; test: NCI five-dose testing; details: Homo sapiens; for IC50 / IC (TGI): A498; for LC50 (lethal concentration 50%): A498, read-out: LD50 (lethal dose 50); for IC (TGI): read-out: TGI (total growth inhibition concentration)
Procedure: (§1) Screening against the cancer cell lines was carried out at the National Cancer Institute (NCI, Bethesda, Maryland, USA) applying the standard protocol of the NCI[22].

[2] = test system: HT-29 colon cancer cell line; test: NCI five-dose testing; details: Homo sapiens; for CC50: HT-29, read-out: LD50 (lethal dose 50); for IC50 / IC (TGI): HT-29; for IC50: read-out: IC50; for IC (TGI): read-out: TGI (total growth inhibition concentration)
Procedure: as §1

[3] = test system: K-562 leukaemia cell line; test: NCI five-dose testing; details: for CC50: K562, read-out: LD50 (lethal dose 50); for IC50 / IC (TGI): K-562; for IC (TGI): read-out: TGI (total growth inhibition concentration)
Procedure: as §1

[4] = test system: PC-3 prostate cancer cell line; test: NCI five-dose testing; details: Homo sapiens; for LC50 (lethal concentration 50): PC-3, read-out: LD50 (lethal dose 50); for IC50 / IC (TGI): PC-3; for IC50: read-out: IC50; for IC (TGI): read-out: TGI (total growth inhibition concentration)
Procedure: as §1

[5] = test system: HOP-92 non-small cell lung cancer cell line; test: NCI five-dose testing; details: Homo sapiens; for IC50: HOP-92; for IC (TGI): HOP-92, HOP-92, read-out: TGI (total growth inhibition concentration); for LD50 (lethal dose 50): HOP-92, read-out: LD50 (lethal dose 50)
Procedure: as §1

[6] = test system: MDA-MB-468 breast cancer cell line; test: NCI five-dose testing; details: Homo sapiens; for IC50 / IC (TGI): MDA-MB-468; for CC50: MDA-MB-468, read-out: LD50 (lethal dose 50); for IC (TGI): read-out: TGI (total growth inhibition concentration)
Procedure: as §1

[7] = test system: U251 CNS cancer cell line; test: NCI five-dose testing; details: Homo sapiens; for CC50: U-251, read-out: LD50 (lethal dose 50); for IC50 / IC (TGI): U-251, U251; for IC50: read-out: IC50; for IC (TGI): read-out: TGI (total growth inhibition concentration)
Procedure: as §1

[8] = test system: SK-MEL-5 melanoma cell line; test: NCI five-dose testing; details: Homo sapiens; for IC50 / IC (TGI): SK-MEL-5; for LC50 (lethal concentration 50): SK-MEL-5, read-out: LD50 (lethal dose 50); for IC (TGI): read-out: TGI (total growth inhibition concentration)
Procedure: as §1

[9] = test system: OVCAR-4 ovarian cancer cell line; test: NCI five-dose testing; details: Homo sapiens; for IC50 / IC (TGI): OVCAR-4; for LC50 (lethal concentration 50): OVCAR-4, read-out: LD50 (lethal dose 50); for IC (TGI): read-out: TGI (total growth inhibition concentration)
Procedure: as §1

[10] = test system: prostate cancer cell lines; test: NCI five-dose testing, subpanel mean; details: subpanel VIII: prostate cancer
Procedure: as §1

CNS cancer cell lines = test: NCI five-dose testing, subpanel mean; details: subpanel IV: CNS cancer
Procedure: as §1

breast cancer cell lines = test: NCI five-dose testing, subpanel mean; details: subpanel IX: breast cancer
Procedure: as §1

renal cancer cell lines = test: NCI five-dose testing, subpanel mean; details: subpanel VII: renal cancer
Procedure: as §1

Leukaemia cell lines = test: NCI five-dose testing, subpanel mean; details: subpanel I: Leukaemia
Procedure: as §1

colon cancer cell lines = test: NCI five-dose testing, subpanel mean; details: subpanel III: colon cancer
Procedure: as §1

[11] = test system: ovarian cancer cell lines; test: NCI five-dose testing, subpanel mean; details: subpanel VI: ovarian cancer
Procedure: as §1

melanoma cell lines = test: NCI five-dose testing, subpanel mean; details: subpanel V: melanoma
Procedure: as §1

[12] = test system: non-small cell lung cancer cell lines; test: NCI five-dose testing, subpanel mean; details: subpanel II: non-small cell lung cancer
Procedure: as §1

| Compound | IC50 [1] | LC50 (lethal concentration 50%) [1] | IC (TGI) [1] | CC50 [2] | IC50 [2] | IC (TGI) [2] | CC50 ([3]; Homo sapiens) | IC50 ([3]; Homo sapiens, K562) | IC (TGI) ([3]; Homo sapiens, K562) | LC50 (lethal concentration 50) [4] | IC50 [4] | IC (TGI) [4] | IC50 [5] | IC (TGI) [5] | LD50 (lethal dose 50) [5] | IC50 [6] | CC50 [6] | IC (TGI) [6] | CC50 [7] | IC50 [7] | further results |
| --- | --- | --- | --- | --- | --- | --- | --- | --- | --- | --- | --- | --- | --- | --- | --- | --- | --- | --- | --- | --- | --- |
| O=S(=O)(NCCNc1cc(-c2cn(-c3ccccc3)nc2-c2cccc(O)c2)ccn1)c1ccc(C(F)(F)F)cc1 [Compound 1o, N-(2-((4-(3-(3-Hydroxyphenyl)-1-phenyl-1H-pyrazol-4-yl)pyridin-2-yl)amino)ethyl)-4-(trifluoromethyl)benzenesulfonamide] | 1.71 µM | 41.4 µM | 14.5 µM | 35.1 µM | 2.04 µM | 5.4 µM | > 100 µM | 2.48 µM | 6.5 µM | 93.4 µM | 2.47 µM | 10.9 µM | 1.97 µM | 6.2 µM | 52 µM | 2.05 µM | > 100 µM | 5.02 µM | 44.1 µM | 2.65 µM | IC (TGI) [7]: 7.2 µM; IC50 [8]: 1.78 µM; LC50 (lethal concentration 50) [8]: 6.3 µM; IC (TGI) [8]: 3.3 µM; IC50 [9]: 2.85 µM; LC50 (lethal concentration 50) [9]: 81.2 µM; IC (TGI) [9]: 16.9 µM; IC50 [10]: 3.45 µM; IC50 (CNS cancer cell lines): 2.67 µM; IC50 (breast cancer cell lines): 2.11 µM; IC50 (renal cancer cell lines): 2.45 µM; IC50 (Leukaemia cell lines): 2.34 µM; IC50 (colon cancer cell lines): 2.38 µM; IC50 [11]: 3.12 µM; IC50 (melanoma cell lines): 2.37 µM; IC50 [12]: 3.03 µM |
| O=S(=O)(NCCCNc1cc(-c2cn(-c3ccccc3)nc2-c2cccc(O)c2)ccn1)c1ccc(F)cc1 [Compound 2m, 4-Fluoro-N-(3-((4-(3-(3-hydroxyphenyl)-1-phenyl-1H-pyrazol-4-yl)pyridin-2-yl)amino)propyl)benzenesulfonamide] | 3.52 µM | 52.3 µM | 9.8 µM | 47.8 µM | 2.26 µM | 6.4 µM | > 100 µM | 2.4 µM | 6.3 µM | 80.7 µM | 3.11 µM | 8.5 µM | 2.66 µM | 7.6 µM | 84.2 µM | 2.55 µM | > 100 µM | 6.7 µM | 69.5 µM | 2.97 µM | IC (TGI) [7]: 10.3 µM; IC50 [8]: 3.06 µM; LC50 (lethal concentration 50) [8]: 33 µM; IC (TGI) [8]: 10.1 µM; IC50 [9]: 3.82 µM; LC50 (lethal concentration 50) [9]: > 100 µM; IC (TGI) [9]: 4.8 µM; IC50 [10]: 3.62 µM; IC50 (CNS cancer cell lines): 3.28 µM; IC50 (breast cancer cell lines): 2.69 µM; IC50 (renal cancer cell lines): 3.81 µM; IC50 (Leukaemia cell lines): 2.25 µM; IC50 (colon cancer cell lines): 2.68 µM; IC50 [11]: 3.79 µM; IC50 (melanoma cell lines): 2.89 µM; IC50 [12]: 3.91 µM |
| O=S(=O)(NCCCNc1cc(-c2cn(-c3ccccc3)nc2-c2cccc(O)c2)ccn1)c1ccc(C(F)(F)F)cc1 [Compound 2o, N-(3-((4-(3-(3-Hydroxyphenyl)-1-phenyl-1H-pyrazol-4-yl)pyridin-2-yl)amino)propyl)-4-(trifluoromethyl)benzenesulfonamide] | 1.09 µM | 6.3 µM | 2.6 µM | 8.1 µM | 0.5 µM | 3.1 µM | > 100 µM | 0.61 µM | 5.3 µM | 18.9 µM | 2.87 µM | 4.5 µM | 1.41 µM | 3.6 µM | 9.7 µM | 1.85 µM | > 100 µM | 5.5 µM | 8.1 µM | 1.78 µM | IC50 [3]: 0.617 µM; IC (TGI) [7]: 3.2 µM; IC50 [8]: 1.57 µM; LC50 (lethal concentration 50) [8]: 5.6 µM; IC (TGI) [8]: 2.9 µM; IC50 [9]: 3.06 µM; LC50 (lethal concentration 50) [9]: > 100 µM; IC (TGI) [9]: 5.1 µM; IC50 [10]: 2.79 µM; IC50 (CNS cancer cell lines): 1.71 µM; IC50 (breast cancer cell lines): 1.87 µM; IC50 (renal cancer cell lines): 2.03 µM; IC50 (Leukaemia cell lines): 1.9 µM; IC50 (colon cancer cell lines): 1.64 µM; IC50 [11]: 2.32 µM; IC50 (melanoma cell lines): 1.72 µM; IC50 [12]: 2.12 µM |
